The values that follow come from patent US20070142392A1, “Uses of rifamycins” (ActivBiotics, Inc., priority 2005, published 2007).

≈ marks a conversion by molar mass, not a printed value. Read-outs that look alike come from different tables or passages of the source.

For data set [1], the system named is E. coli. Description: MIC values, E. coli (Tables 1-4). The format is cell-based.
Data set [2] relates to S. aureus. Briefly: MIC values, S. aureus (Tables 1-4). In kind it is cell-based.
Data set [3] deals with S. aureus. Description: Foreign-body (tissue cage) infection model, antimicrobial treatment. In kind it is in vivo, guinea pigs. Particulars: for Cure rate of removed cages: cages removed day 9; for Mean log10 CFU/ml ± SD in aspirated cage fluid, during treatment / no. culture negative/total no., cage fluid during treatment: day 4; for Mean log10 CFU/ml ± SD in aspirated cage fluid, after treatment / no. culture negative/total no., cage fluid after treatment: day 9.
Method: For pharmacokinetic studies, non-infected animals were used. […] Antibiotics were administered intraperitoneally every 12 hours for four days (total eight doses). […] The cure rate is the fraction of cages in which the infection was eradicated. […] Following incubation, 50 μl of the TSB mixture was plated on blood agar plates to determine the presence of bacteria. A foreign-body infection model in guinea pigs was used for in vivo analysis of antimicrobials as described in Example 2, however in this example the animals were infected. […] Antibiotics were administered intraperitoneally every 12 hours for four days (total eight doses).

Data set [4] deals with S. aureus ATCC29213. Description: MIC by broth dilution method. The settings on record: S. aureus ATCC29213, inoculum 5×10^5 CFU/ml. The format is cell-based. The protocol: (§1) FIG. 2A is a schematic illustration showing the peak drug concentration of Compound 86 (1.13 μg/ml) in cage fluid from non-infected animals after single dose of 12.5 mg/kg. […] In this medium, bacterial counts remained stable in the absence of antibacterial agents for >36 hours.
(§2) In this medium, bacterial counts remained stable in the absence of antibacterial agents for >36 hours.
(§3) To understand the relative efficacy of peak drug concentration, it is compared to the minimal inhibitory concentration (MIC), the minimal bactericidal concentration for logarithmic phase growth (MBClog) and the MBCstat. […] The MBClog was defined as antimicrobial concentration that reduced the original inoculum by […] after 24 hour incubation (i.e. 3 log 10 CFU/ml), as described in the Manual of Clinical Microbiology. The MBCstat was determined as described in Example 1.

Data set [5] concerns H. flu. The format is cell-based.
For data set [6] the following is noted: guinea pig, in vivo, ip.
From the text: (§4) For pharmacokinetic studies, non-infected animals were used. […] Teflon tissue cages were implanted into the flanks of guinea pigs. For pharmacokinetic studies, non-infected animals were used.
Data set [7] deals with E. faecalis. Description: MIC values, E. faecalis (Tables 1-4). In kind it is cell-based.
The subject of data set [8] is S. pneumo. Description: MIC values, S. pneumo. (Tables 1-4). The format is cell-based.
The subject of data set [9] is S. aureus ATCC29213. Description: minimal bactericidal concentration for logarithmic phase growth (MBClog). In kind it is cell-based. The protocol: as §1, §2, §3
Data set [10] concerns S. aureus. Briefly: minimal bactericidal concentration in the stationary growth phase (MBCstat). The settings on record: Staphylococcus aureus, 1% glucose PBS pH 7.4 with 4% Muller Hinton Broth. In kind it is cell-based. The protocol:
as §1, §2
The minimal bactericidal concentration in the stationary growth phase (MBCstat) was determined by using overnight bacterial cultures which were centrifuged and resuspended in medium containing 1% glucose supplemented phosphate buffered saline (PBS) pH 7.4 with 4% Muller Hinton Broth (Zimmerli et al., J Antimicrob. Chemother. 33:959-967 (1994)). In this medium, bacterial counts remained stable in the absence of antibacterial agents for >36 hours.

Data set [11] is described as follows: in vivo. The settings on record: albino, guinea pig, ip, 12.5 mg/kg.
From the text: as §4

For orientation: Tmax means the time at which the peak concentration occurs. With `CO[C@H]1/C=C/O[C@@]2(C)Oc3c(C)c(O)c4c(=O)c(c5oc6cc(N7CCN(C)CC7)cc(O)c6nc-5c4c3C2=O)NC(=O)/C(C)=C\C=C\[C@H](C)[C@H](O)[C@@H](C)[C@@H](O)[C@@H](C)[C@H](O)[C@@H]1C` [Compound 86], the “MIC E. coli” value in data set [1] worked out at 4 µg/mL (≈ 4.67 µM). The “MIC S. aureus” value in data set [2] was 0.002 µg/mL (≈ 0.00233 µM). In addition, in data set [3] (3 mg/kg/12 h i.p.), the “Cure rate of removed cages” value is given as 8% (1/12); the “Mean log10 CFU/ml ± SD in aspirated cage fluid, during treatment” value (“Mean log10 CFU/ml ± SD … during treatment” for short) is on record as 4.76 ± 0.51 log10 CFU/ml; the “no. culture negative/total no., cage fluid during treatment” value is recorded as 2/12; the “Mean log10 CFU/ml ± SD in aspirated cage fluid, after treatment” value (“Mean log10 CFU/ml ± SD … after treatment” below) is 2.77 ± 0.53 log10 CFU/ml. For the same compound, in data set [3] (3 mg/kg/12 h i.p.), the “no. culture negative/total no., cage fluid after treatment” value is recorded as 4/12. Further, in data set [3] (12.5 mg/kg/12 h i.p.), the “Cure rate of removed cages” value is reported as 58%; the “Mean log10 CFU/ml ± SD … during treatment” value was determined as 3.24 ± 0.27 log10 CFU/ml; the “no. culture negative/total no., cage fluid during treatment” value is listed as 5/12; the “Mean log10 CFU/ml ± SD … after treatment” value was determined as 1.57 ± 0.53 log10 CFU/ml. In addition, the “no. culture negative/total no., cage fluid after treatment” value in data set [3] (12.5 mg/kg/12 h i.p.) was 10/12. In addition, the “Cure rate of removed cages” value in [3] (12.5 mg/kg/12 h i.p., listed as Cpd 86) is recorded as 58% (7/12). Besides, the “minimal inhibitory concentration (MIC)” value in data set [4] amounted to 0.002 µg/mL (≈ 0.00233 µM). In [5], the “MIC H. flu” value stood at 0.25 µg/mL (≈ 0.292 µM). In [6] (3 mg/kg), this compound yielded a Cmin of 40 ± 10 ng/mL. Also, in data set [6] (12.5 mg/kg), the “Cmax (peak drug concentration)” value worked out at 1130 ng/mL, the Cmin is 140 ± 110 ng/mL and the Tmax came out at 8 h. Moreover, the “MIC E. faecalis” value in data set [7] came out at 0.015 µg/mL (≈ 0.0175 µM). The “MIC S. pneumo.” value in data set [8] is 0.00012 µg/mL (≈ 0.00014 µM). Besides, the MBClog in [9] (24 hour incubation) is 0.008 μg/ml.

One may read the MBC as the lowest tested concentration that kills the bacteria rather than only halting them. Usually AUC stands for the area under the concentration-time curve, a measure of exposure. A low value points to low exposure. A word on the Cmax: it is the peak of the concentration-time curve. For `CO[C@H]1/C=C/O[C@@]2(C)Oc3c(C)c(O)c4c(O)c(c(/C=N/N5CCN(C)CC5)c(O)c4c3C2=O)NC(=O)/C(C)=C\C=C\[C@H](C)[C@H](O)[C@@H](C)[C@@H](O)[C@@H](C)[C@H](OC(C)=O)[C@@H]1C` [Rifampin, rifampin, reference compound], the MBC in data set [10] was 3.6 µg/mL (≈ 4.37 µM). In data set [3] (12.5 mg/kg/12 h i.p.), the “Mean log10 CFU/ml ± SD … during treatment” value is reported as 3.68 ± 0.59 log10 CFU/ml; the “no. culture negative/total no., cage fluid during treatment” value is listed as 11/24; the “Mean log10 CFU/ml ± SD … after treatment” value amounted to 1.43 ± 0.28 log10 CFU/ml; the “no. culture negative/total no., cage fluid after treatment” value is listed as 19/24. For the same compound, the MIC in data set [4] (Staphylococcus aureus, read-out: minimal inhibitory concentration (MIC)) is 0.016 µg/mL (≈ 0.0194 µM). Further, in data set [11], the exposure (AUC) was 4560 ng·h/mL, the highest level (Cmax) was 980 ng/mL, the time to peak (Tmax) came to 2 h and the concentration at 12 h worked out at 140 ± 90 ng/mL. The Tmax result in [6] (12.5 mg/kg) is “two”. In [9] (Staphylococcus aureus, ATCC29213, 24 hour incubation), this compound had an MBC of 0.8 µg/mL (≈ 0.972 µM).
